Results: ChEMBL document CHEMBL1144964, “Inhibition of mandelate racemase by alpha-fluorobenzylphosphonates” (Bioorg Med Chem Lett, 2003)

Columns and labels:
Mandelate racemase = target: T1, Mandelate racemase (Pseudomonas putida, UniProt P11444); assay: Inhibition constant against Mandelate racemase from Pseudomonas putida at pH 7.5
T1 sequence (P11444 whole entry): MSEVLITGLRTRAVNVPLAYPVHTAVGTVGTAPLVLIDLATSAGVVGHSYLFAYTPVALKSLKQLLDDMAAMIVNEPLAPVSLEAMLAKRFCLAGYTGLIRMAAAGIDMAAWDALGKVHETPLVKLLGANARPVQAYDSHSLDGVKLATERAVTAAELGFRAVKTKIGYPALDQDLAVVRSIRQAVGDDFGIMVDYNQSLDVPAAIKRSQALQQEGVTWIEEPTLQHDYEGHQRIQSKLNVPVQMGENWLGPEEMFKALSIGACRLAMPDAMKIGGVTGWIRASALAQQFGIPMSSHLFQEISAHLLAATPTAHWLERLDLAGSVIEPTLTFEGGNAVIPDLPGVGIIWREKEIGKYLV

[1] = Inhibition constant against mandelate racemase from Pseudomonas putida at pH 6.3
[2] = pKa2 (Dissociation constant) value (phosphonate group) was determined; assay type: physicochemical; conditions: read-out: pKa2
[3] = Inhibition constant against Mandelate racemase from Pseudomonas putida at pH 6.3

Row | SMILES | Ki (Mandelate racemase) [µM] | Ki [1] [µM] | pKa [2] | Ki [3] [µM]
1 | O=P(O)(O)C(F)(F)c1ccccc1 | 12000 | 1000 | – | –
2 | O=P(O)(O)C(O)c1ccccc1 (racemic) [ALPHA HYDROXY BENZYLPHOSPHONATE] | 4.7 | – | 6.89 | –
3 | O=C(c1ccccc1)P(=O)(O)O [BENZOYLPHOSPHONATE] | 300 | – | 5.46 | –
4 | O=P(O)(O)Cc1ccccc1 [BENZYLPHOSPHONIC ACID] | 3600 | – | – | –
5 | O=P(O)(O)C(F)c1ccccc1 (racemic) | 810 | – | – | –
6 | O=P(O)(O)[C@H](O)c1ccccc1 | 1.1 | – | 6.89 | –
7 | O=P(O)(O)[C@H](F)c1ccccc1 | 530 | – | – | 87
8 | O=P(O)(O)[C@@H](O)c1ccccc1 | 34 | – | 6.89 | –
9 | O=P(O)(O)[C@@H](F)c1ccccc1 | 1110 | – | – | –
